Measured values published in patent publication US20180008620A1, “METHODS OF TREATING NEUROLOGICAL INFLAMMATORY DISORDERS” (Mayo Foundation for Medical Education and Research, priority 2015, published 2018).

Assays:
[1] = tested on: Neurons cultured from neonatal mice; assay: Calcium imaging of spontaneous network activity (GCaMP reporter); assay type: cell-based, mouse; settings: for correlation of spontaneous activity (Pearson correlation matrix): cytokine-stimulated cultures vs vehicle control (overall uncorrelated); for correlation of spontaneous activity (Pearson correlation matrix) / absolute number of spontaneously active cells: FIG. 7; for absolute number of spontaneously active cells: cytokine-stimulated networks, vehicle control 42 neurons
Method: The PBS control cultures show low amplitude calcium transients that are non-synchronous. […] Calcium levels were monitored using a fluorescent reporter transduced into the neurons with […].
The Pearson correlation matrix was calculated for all of the neurons showing spontaneous activity in the culture and heat-mapped (red=highly correlated activity; blue=uncorrelated activity). In the vehicle control neurons, there is a small cluster of synchronous activity but the overall network is uncorrelated.
Neurons are cultured in glass imaging chambers under conditions that promote formation of mature synaptic networks. Cells are infected with an AAV1.Syn.GCaMP6f calcium reporter that provides fast optical tracking of intracellular calcium levels (Akerboom et al., 2012, J. Neurosci., 32:[…]; Chen et al., 2013, Nature, 499:295-300). Calcium levels are monitored in real-time using a Zeiss 5-Live confocal microscope equipped with environmental chamber. Following collection of baseline spontaneous activity levels at low magnification, inflammatory cytokine is added at the optimal cytokine concentration determined above, and cells are followed for up to 60 minutes. Images are post-processed in Image J to measure calcium transient amplitudes and frequencies within defined cells. In some experiments, an Olympus multi-photon microscope is used at high magnification to track activity in individual synapses. In addition to spontaneous activity, calcium flux elicited by addition of glutamate to cultures that have been pretreated with inflammatory cytokines for different times (0, 1, 3, 6, 12, 24, 48, 72, or 96 hr) prior to stimulation also is measured.
Neurons were cultured from neonatal mice and stimulated with TNF alpha (100 ng/mL) or IFN gamma (500 U/mL) for 24 hr. Following transduction with an AAV-encoded GCaMPf reporter, fast calcium transients were imaged in the cells. Regions of interest outlining individual neurons were defined in each frame of movies collected over several minutes, and the fluorescence intensity of each cell was graphed through time to reveal patterns in the population response.

[2] = tested on: Mouse cortical neurons; assay: IFN gamma stimulation of distal axons in two-chamber device, microarray of cell body RNA; assay type: cell-based; settings: IFN gamma added to axon chamber, RNA from cell body chamber 72 hours later
Method: Mouse cortical neurons were cultured in a two-chamber device that separates cell bodies from axons. Panel A is a schematic of the chambered device constructed in PDMS polymer. Panel B is a low-magnification image of the corresponding regions shown in Panel A stained with an antibody against neurofilament (an axon-specific protein). Higher magnification images are shown of the cell body chamber (Panel C), the axon grooves (Panel D), and the axon chamber (Panel E). DAPI staining indicates the complete absence of any cells in the axon chamber. Panel F is a schematic showing the experimental design: IFNgamma was added to the pure axons in the axon chamber; RNA was collected from the cell body chamber 72 hours later and analyzed by microarray to identify changes in gene expression.
Mouse cortical neurons were cultured in a two-chamber device that separates cell bodies from axons.
IFN gamma was added to the pure axons in the axon chamber, and RNA was collected from the cell body chamber 72 hours later. The RNA was analyzed by microarray to identify changes in gene expression.

[3] = tested on: Mouse cortical neurons; assay: IFN gamma-induced transcriptional changes, Illumina BeadArray; assay type: cell-based; settings: IFN gamma 500 U/mL, 24 hr, vs untreated controls; mean±95% confidence intervals
Method: Cortical neurons were prepared from embryonic day 15 C57BL/6 mouse fetuses, following published protocols (Sauer et al., 2013, Neurobiol. Dis., 59:194-205). In preliminary experiments, after one week in vitro, the neurons were stimulated for 24 hr with IFN gamma (500 U/mL). Quadruplicate RNA samples were collected under treated and untreated conditions, and changes in gene expression were assessed using the Illumina BeadArray system. Only genes that were detected at P<0.05 on the array were considered for further analysis. Expression levels were […] and the relative level of expression following IFN gamma stimulation was compared to untreated controls. Table 1 provides mean±95% confidence intervals; the appropriate statistical test was chosen based on normality and equal variance tests.

[4] = TNF alpha 100 ng/mL or IFN gamma 500 U/mL for 24 hr, FIGS. 8B and 8C

With `NCCCC(=O)O` [GABA, reference compound] the “averaged calcium responses / synaptic activity” value ([1]; 27 μM GABA added to control cultures, FIG. 8E) was “completely suppresses synaptic activity”.
With “IFN gamma: inflammatory cytokine interferon gamma used to stimulate neurons” the “averaged calcium responses / network activity” value [1, 4] was “network bursting and highly synchronized synaptic activity”, the “correlation of spontaneous activity (Pearson correlation matrix)” value [1] was “nearly complete correlation across the entire network” and the “absolute number of spontaneously active cells” value [1] was 137 neurons. For the same molecule, the “GTP cyclohydrolase I expression in neuron cell bodies” value [2] was “significantly up-regulated”, the “MOCOS expression in neuron cell bodies” value [2] was “robust up-regulation” and the “aldehyde dehydrogenase expression in neuron cell bodies” value [2] was “significantly up-regulated”. The “gephyrin expression in neuron cell bodies” value [2] was “down-regulation”, the “glycine receptor beta subunit expression in neuron cell bodies” value [2] was “down-regulation” and the “xanthine dehydrogenase expression in neuron cell bodies” value [2] was “significantly up-regulated”. For the same molecule, the “GABA receptor elements expression in neuron cell bodies” value ([2]; not shown) was “down-regulation”, the “gephyrin-binding scaffolds expression in neuron cell bodies” value ([2]; not shown) was “down-regulation” and the “Fold Change, gene Actb (housekeeping)” value [3] was 1.04 ± 0.06 fold. The “Fold Change, gene Aldh1a1” value [3] was 2.46 ± 0.08 fold, the “Fold Change, gene Collybistin” value [3] was 0.71 ± 0.06 fold and the “Fold Change, gene GABA A R α3” value [3] was 0.66 ± 0.10 fold. For the same molecule, the “Fold Change, gene GABA A R β1” value [3] was 0.56 ± 0.09 fold, the “Fold Change, gene GABA A R β2” value [3] was 0.80 ± 0.09 fold and the “Fold Change, gene GABA A R β3” value [3] was 0.75 ± 0.07 fold. The “Fold Change, gene GABA A R γ2” value [3] was 0.64 ± 0.05 fold, the “Fold Change, gene GABA B R2” value [3] was 0.71 ± 0.10 fold and the “Fold Change, gene Gapdh” value [3] was 1.03 ± 0.06 fold. For the same molecule, the “Fold Change, gene Gch1” value [3] was 1.59 ± 0.04 fold, the “Fold Change, gene Gephyrin” value [3] was 0.75 ± 0.05 fold and the “Fold Change, gene Glycine R β1” value [3] was 0.59 ± 0.07 fold. The “Fold Change, gene MOCOS” value [3] was 2.97 ± 0.21 fold and the “Fold Change, gene Xdh” value [3] was 1.47 ± 0.14 fold.
With TNF alpha the “averaged calcium responses / network activity” value [1, 4] was “network bursting and highly synchronized synaptic activity”, the “correlation of spontaneous activity (Pearson correlation matrix)” value [1] was “nearly complete correlation across the entire network” and the “absolute number of spontaneously active cells” value [1] was 151 neurons. The “spontaneous calcium levels in neurons” value ([1]; stimulated for 24 hr, vs PBS control with low amplitude non-synchronous transients, FIG. 6) was “large amplitude calcium signals that were highly synchronized”.
picrotoxin [reference compound] was tested, and the “averaged calcium responses / network activity” value ([1]; control cultures treated with 2.4 μM picrotoxin, FIG. 8D) was “induces network synchrony and bursting”.
